Calls of active or inactive are those of the source. No cut-off for these calls is given here.
Assays:
MDA-MB-231 = assay: Antiproliferative activity against human MDA-MB-231 cells assessed as inhibition of cell proliferation incubated for 72 hrs by MTT assay; format: functional, cell-based; conditions: MDA-MB-231, 72 h
MCF7 [1] = assay: Antiproliferative activity against human MCF-7 cells assessed as inhibition of cell proliferation incubated for 72 hrs by MTT assay; format: functional, cell-based; conditions: MCF7, 72 h
[2] = Toxicity in BALB/c mouse assessed as body weight loss at 40 mg/kg, ip administered daily for 12 days measured once every 3 days; format: organism-based; conditions: in vivo, 288 h, time 12 day
[3] = AUC in rat at 15 mg/kg, ip measured after 8 hrs; format: ADME, organism-based; design: dose 15 mg/kg, time 8 hrs, route ip; conditions: in vivo
[4] = Toxicity in BALB/c mouse assessed as death at 40 mg/kg, ip administered daily for 12 days; format: organism-based; conditions: in vivo, 288 h, time 12 day
4T1 [5] = assay: Antitumor activity against female BALB/c mouse xenografted with 4T1 cells assessed as reduction on tumor weight at 40 mg/kg, ip administered daily for 12 days; format: functional, organism-based; conditions: time 12.0 day
[6] = molecular target: T1, Protein cereblon/Heat shock protein HSP 90-alpha/Heat shock protein HSP 90-beta (Homo sapiens, UniProt P07900+P08238+Q96SW2); assay: Protac activity at CRBN/HSP90 in human MCF7 cells assessed as reduction in p53 protein expression level at 2 uM measured after 6 hrs by western blot analysis; format: cell-based
4T1 [7] = assay: Antitumor activity against female BALB/c mouse xenografted with 4T1 cells assessed as tumor growth inhibition at 40 mg/kg, ip administered daily for 12 days relative to control; format: functional; conditions: 4T1, 288 h, time 12 day, read-out: TGI
4T1 [8] = assay: Anticancer activity against mouse 4T1 cells assessed as inhibition of cell proliferation measured after 72 hrs by MTT assay; format: functional, cell-based; conditions: 4T1, 72 h
[9] = molecular target: T1, Protein cereblon/Heat shock protein HSP 90-alpha/Heat shock protein HSP 90-beta; assay: Protac activity at CRBN/HSP90 in human MCF7 cells assessed as HSP90 degradation measured after 6 hrs by western blot analysis; format: cell-based
MCF7 [10] = assay: Anticancer activity against human MCF7 cells assessed as inhibition of colony formation at 2 to 10 uM measured after 48 hrs by crystal violet staining based assay; format: functional, cell-based; conditions: dose 2-10 µM, DDE = dose-dependent effect
[11] = molecular target: T1, Protein cereblon/Heat shock protein HSP 90-alpha/Heat shock protein HSP 90-beta; assay: Protac activity at CRBN/HSP90 in human MCF7 cells assessed as reduction in HSP90 mRNA expression level at 2 uM followed by cycloheximide addition measured upto 12 hrs by qRT-PCR analysis; format: cell-based
4T1 [12] = assay: Antitumor activity against female BALB/c mouse xenografted with 4T1 cells assessed as reduction on tumor formation at 40 mg/kg, ip administered daily for 12 days; format: functional, organism-based; conditions: time 12.0 day
[13] = Tmax in rat at 15 mg/kg, ip measured after 8 hrs; format: ADME, organism-based; conditions: in vivo
[14] = molecular target: T1, Protein cereblon/Heat shock protein HSP 90-alpha/Heat shock protein HSP 90-beta; assay: Protac activity at CRBN/HSP90 in human MCF7 cells assessed as reduction in HSP90 protein expression level at 2 uM followed by cycloheximide addition measured upto 12 hrs by western blot analysis; format: cell-based
[15] = molecular target: T1, Protein cereblon/Heat shock protein HSP 90-alpha/Heat shock protein HSP 90-beta; assay: Protac activity at CRBN/HSP90 in human MCF7 cells assessed as reduction in AKT protein expression level at 2 uM measured after 6 hrs by western blot analysis; format: cell-based
Heat shock protein HSP90 = Heat shock protein HSP90 (Homo sapiens, UniProt P07900+P08238); assay: Binding affinity to HSP90 (unknown origin) upto 250 uM by BLI assay; format: protein assay
[16] = molecular target: Heat shock protein HSP 90-alpha (Homo sapiens) (UniProt P07900); assay: Degradation of HSP90alpha in human MCF7 cells at 2 uM measured after 6 hrs by western blot analysis; format: cell-based
[17] = Cmax in rat at 15 mg/kg, ip measured after 8 hrs; format: ADME, organism-based; design: time 8 hrs, dose 15 mg/kg, route ip; conditions: in vivo
MDA-MB-468 = assay: Anticancer activity against human MDA-MB-468 cells assessed as inhibition of cell proliferation measured after 72 hrs by MTT assay; format: functional, cell-based; conditions: MDA-MB-468, 72 h
[18] = molecular target: T1, Protein cereblon/Heat shock protein HSP 90-alpha/Heat shock protein HSP 90-beta; assay: Protac activity at CRBN/HSP90 in human MCF7 cells assessed as maximum degradation of HSP90 measured after 6 hrs by western blot analysis relative to control; format: cell-based
[19] = Half life in rat at 15 mg/kg, ip measured after 8 hrs; format: ADME, organism-based; conditions: in vivo
[20] = molecular target: T1, Protein cereblon/Heat shock protein HSP 90-alpha/Heat shock protein HSP 90-beta; assay: Protac activity at CRBN/HSP90 in human MCF7 cells assessed as reduction in HSP90 protein expression level at 2 uM measured after 6 hrs by western blot analysis; format: cell-based
[21] = AUCinfinity in rat at 15 mg/kg, ip measured after 8 hrs; format: ADME, organism-based; design: dose 15 mg/kg, time 8 hrs, route ip; conditions: in vivo
4T1 [22] = assay: Antitumor activity against female BALB/c mouse xenografted with 4T1 cells assessed as tumor growth inhibition at 60 mg/kg, ip administered daily for 12 days relative to control; format: functional; conditions: 4T1, 288 h, time 12 day, read-out: TGI

T1 sequence (P08238 whole entry, other chains not shown): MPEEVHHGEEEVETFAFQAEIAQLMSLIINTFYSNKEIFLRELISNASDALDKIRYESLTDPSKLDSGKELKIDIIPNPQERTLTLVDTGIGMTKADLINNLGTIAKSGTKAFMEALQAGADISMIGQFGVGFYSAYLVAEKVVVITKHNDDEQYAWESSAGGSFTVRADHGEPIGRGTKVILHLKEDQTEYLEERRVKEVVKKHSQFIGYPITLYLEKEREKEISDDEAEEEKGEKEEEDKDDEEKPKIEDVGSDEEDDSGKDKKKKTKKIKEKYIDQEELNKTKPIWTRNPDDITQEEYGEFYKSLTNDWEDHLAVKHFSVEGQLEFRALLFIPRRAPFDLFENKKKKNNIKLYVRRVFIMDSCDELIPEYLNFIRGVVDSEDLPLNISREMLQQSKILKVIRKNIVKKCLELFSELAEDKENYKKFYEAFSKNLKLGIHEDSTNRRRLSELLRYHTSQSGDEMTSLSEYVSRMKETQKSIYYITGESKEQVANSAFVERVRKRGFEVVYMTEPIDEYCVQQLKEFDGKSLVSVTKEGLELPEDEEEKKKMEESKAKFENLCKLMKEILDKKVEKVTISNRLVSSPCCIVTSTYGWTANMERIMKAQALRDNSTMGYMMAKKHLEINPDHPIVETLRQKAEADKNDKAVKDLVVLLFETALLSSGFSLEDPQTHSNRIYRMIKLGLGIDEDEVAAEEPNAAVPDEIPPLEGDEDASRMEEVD
T1 sequence (Q96SW2 whole entry, other chains not shown): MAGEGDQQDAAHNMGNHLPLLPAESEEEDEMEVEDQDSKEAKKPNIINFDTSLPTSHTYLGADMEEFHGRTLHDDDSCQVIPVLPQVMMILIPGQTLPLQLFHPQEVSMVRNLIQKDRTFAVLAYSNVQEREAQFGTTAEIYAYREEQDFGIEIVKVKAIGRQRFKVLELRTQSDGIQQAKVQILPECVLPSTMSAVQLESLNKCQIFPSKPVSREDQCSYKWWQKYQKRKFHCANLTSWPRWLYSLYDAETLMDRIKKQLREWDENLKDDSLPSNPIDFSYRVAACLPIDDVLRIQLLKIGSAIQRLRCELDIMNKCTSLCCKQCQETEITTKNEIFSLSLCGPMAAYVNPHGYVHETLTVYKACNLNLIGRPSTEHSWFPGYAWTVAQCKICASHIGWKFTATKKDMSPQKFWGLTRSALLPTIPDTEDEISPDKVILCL

COc1c(C)cnc(Cn2cc(C#CCCCNc3cccc4c3C(=O)N(C3CCC(=O)NC3=O)C4=O)c3c(Cl)nc(N)nc32)c1C (configuration not stated)
IC50 (MDA-MB-231): 5.2 µM
IC50 (MCF7 [1]): 1.45 µM

COc1cc(C(=O)NCCCC#Cc2cn(Cc3ncc(C)c(OC)c3C)c3nc(N)nc(Cl)c23)ccc1NC(=O)[C@@H]1N[C@@H](CC(C)(C)C)[C@](C#N)(c2ccc(Cl)cc2F)[C@H]1c1cccc(Cl)c1F
IC50 (MDA-MB-231): > 100 µM
IC50 (MCF7 [1]): 97.3 µM

COc1cc(C(=O)NCCOCCOCCOCC#Cc2cn(Cc3ncc(C)c(OC)c3C)c3nc(N)nc(Cl)c23)ccc1NC(=O)[C@@H]1N[C@@H](CC(C)(C)C)[C@](C#N)(c2ccc(Cl)cc2F)[C@H]1c1cccc(Cl)c1F
IC50 (MDA-MB-231): > 100 µM
IC50 (MCF7 [1]): > 100 µM

COc1c(C)cnc(Cn2cc(C#CCCNc3cccc4c3C(=O)N(C3CCC(=O)NC3=O)C4=O)c3c(Cl)nc(N)nc32)c1C (configuration not stated)
Activity [2]: 19.7%
AUC [3]: 1360 ng·h/mL
Activity [4]: Non-Toxic
Activity (4T1 [5]): Active
Activity [6]: Active
inhibition in vivo at 40 mg/kg (4T1 [7]): 76.4%
IC50 (4T1 [8]): 0.61 µM
DC50 [9]: 0.99 µM
IC50 (MDA-MB-231): 3.53 µM
Activity (MCF7 [10]): Dde
Activity [11]: Active
Activity (4T1 [12]): Active
Tmax [13]: 1.85 h
Activity [14]: Active
Activity [15]: Active
Kd (Heat shock protein HSP90): 1.18 10^-4M
Activity [16]: Active
Cmax [17]: 260 ng/mL
IC50 (MDA-MB-468): 2.95 µM
IC50 (MCF7 [1]): 0.63 µM
Emax [18]: 83.4%
half-life [19]: 4.5 h
Activity [20]: Active
AUC [21]: 2080 ng·h/mL

COc1cc(C(=O)NCC#Cc2cn(Cc3ncc(C)c(OC)c3C)c3nc(N)nc(Cl)c23)ccc1NC(=O)[C@@H]1N[C@@H](CC(C)(C)C)[C@](C#N)(c2ccc(Cl)cc2F)[C@H]1c1cccc(Cl)c1F
IC50 (MDA-MB-231): > 100 µM
IC50 (MCF7 [1]): 20.9 µM

COc1c(C)cnc(Cn2cc(C#CCOCCOCCOCCOCCNc3cccc4c3C(=O)N(C3CCC(=O)NC3=O)C4=O)c3c(Cl)nc(N)nc32)c1C (configuration not stated)
IC50 (MDA-MB-231): 9.48 µM
IC50 (MCF7 [1]): 6.12 µM

COc1c(C)cnc(Cn2cnc3c(Cl)nc(N)nc32)c1C [BIIB021]
IC50 (4T1 [8]): 0.55 µM
IC50 (MDA-MB-231): 7.72 µM
Activity (MCF7 [10]): Dde
inhibition in vivo at 60 mg/kg (4T1 [22]): 31.8%
IC50 (MDA-MB-468): 2.52 µM
IC50 (MCF7 [1]): 1.12 µM

COc1c(C)cnc(Cn2cc(C#CCOCCOCCOCCOCCOCCOCCNc3cccc4c3C(=O)N(C3CCC(=O)NC3=O)C4=O)c3c(Cl)nc(N)nc32)c1C (configuration not stated)
IC50 (MDA-MB-231): 3.88 µM
IC50 (MCF7 [1]): 3.14 µM

COc1cc(C(=O)NCCOCCOCC#Cc2cn(Cc3ncc(C)c(OC)c3C)c3nc(N)nc(Cl)c23)ccc1NC(=O)[C@@H]1N[C@@H](CC(C)(C)C)[C@](C#N)(c2ccc(Cl)cc2F)[C@H]1c1cccc(Cl)c1F
IC50 (MDA-MB-231): 72.1 µM
IC50 (MCF7 [1]): 32.9 µM

COc1cc(C(=O)NCCOCC#Cc2cn(Cc3ncc(C)c(OC)c3C)c3nc(N)nc(Cl)c23)ccc1NC(=O)[C@@H]1N[C@@H](CC(C)(C)C)[C@](C#N)(c2ccc(Cl)cc2F)[C@H]1c1cccc(Cl)c1F
IC50 (MDA-MB-231): 65.9 µM
IC50 (MCF7 [1]): 71.7 µM

COc1cc(C(=O)NCCOCCOCCOCCOCCOCC#Cc2cn(Cc3ncc(C)c(OC)c3C)c3nc(N)nc(Cl)c23)ccc1NC(=O)[C@@H]1N[C@@H](CC(C)(C)C)[C@](C#N)(c2ccc(Cl)cc2F)[C@H]1c1cccc(Cl)c1F
IC50 (MDA-MB-231): > 100 µM
IC50 (MCF7 [1]): > 100 µM

COc1cc(C(=O)NCCOCCOCCOCCOCC#Cc2cn(Cc3ncc(C)c(OC)c3C)c3nc(N)nc(Cl)c23)ccc1NC(=O)[C@@H]1N[C@@H](CC(C)(C)C)[C@](C#N)(c2ccc(Cl)cc2F)[C@H]1c1cccc(Cl)c1F
IC50 (MDA-MB-231): > 100 µM
IC50 (MCF7 [1]): > 100 µM

COc1c(C)cnc(Cn2cc(C#CCCCCNc3cccc4c3C(=O)N(C3CCC(=O)NC3=O)C4=O)c3c(Cl)nc(N)nc32)c1C (configuration not stated)
IC50 (MDA-MB-231): 2.2 µM
IC50 (MCF7 [1]): 0.25 µM

COc1cc(C(=O)NCCC#Cc2cn(Cc3ncc(C)c(OC)c3C)c3nc(N)nc(Cl)c23)ccc1NC(=O)[C@@H]1N[C@@H](CC(C)(C)C)[C@](C#N)(c2ccc(Cl)cc2F)[C@H]1c1cccc(Cl)c1F
IC50 (MDA-MB-231): > 100 µM
IC50 (MCF7 [1]): 37.9 µM

COc1cc(C(=O)NCCCCC#Cc2cn(Cc3ncc(C)c(OC)c3C)c3nc(N)nc(Cl)c23)ccc1NC(=O)[C@@H]1N[C@@H](CC(C)(C)C)[C@](C#N)(c2ccc(Cl)cc2F)[C@H]1c1cccc(Cl)c1F
IC50 (MDA-MB-231): > 100 µM
IC50 (MCF7 [1]): > 100 µM

COc1c(C)cnc(Cn2cc(C#CCOCCNc3cccc4c3C(=O)N(C3CCC(=O)NC3=O)C4=O)c3c(Cl)nc(N)nc32)c1C (configuration not stated)
IC50 (MDA-MB-231): 0.44 µM
IC50 (MCF7 [1]): 0.19 µM

Nc1cccc2c1C(=O)N(C1CCC(=O)NC1=O)C2=O (configuration not stated) [POMALIDOMIDE]
IC50 (MDA-MB-231): > 100 µM
IC50 (MCF7 [1]): > 100 µM

COc1cc(C(=O)NCCOCCOCCOCCOCCOCCOCC#Cc2cn(Cc3ncc(C)c(OC)c3C)c3nc(N)nc(Cl)c23)ccc1NC(=O)[C@@H]1N[C@@H](CC(C)(C)C)[C@](C#N)(c2ccc(Cl)cc2F)[C@H]1c1cccc(Cl)c1F
IC50 (MDA-MB-231): > 100 µM
IC50 (MCF7 [1]): > 100 µM

COc1c(C)cnc(Cn2cc(C#CCCNc3cccc4c3C(=O)N(C3CCC(=O)N(C)C3=O)C4=O)c3c(Cl)nc(N)nc32)c1C (configuration not stated)
IC50 (MDA-MB-231): 7.77 µM
IC50 (MCF7 [1]): 2.46 µM

COc1c(C)cnc(Cn2cc(C#CCNc3cccc4c3C(=O)N(C3CCC(=O)NC3=O)C4=O)c3c(Cl)nc(N)nc32)c1C (configuration not stated)
IC50 (MDA-MB-231): 20.6 µM
IC50 (MCF7 [1]): 1.98 µM

COc1c(C)cnc(Cn2cc(C#CCOCCOCCOCCOCCOCCNc3cccc4c3C(=O)N(C3CCC(=O)NC3=O)C4=O)c3c(Cl)nc(N)nc32)c1C (configuration not stated)
IC50 (MDA-MB-231): 3.87 µM
IC50 (MCF7 [1]): 5.63 µM

COc1c(C)cnc(Cn2cc(C#CCOCCOCCOCCNc3cccc4c3C(=O)N(C3CCC(=O)NC3=O)C4=O)c3c(Cl)nc(N)nc32)c1C (configuration not stated)
IC50 (MDA-MB-231): 4.85 µM
IC50 (MCF7 [1]): 2.24 µM

COc1c(C)cnc(Cn2cc(C#CCOCCOCCNc3cccc4c3C(=O)N(C3CCC(=O)NC3=O)C4=O)c3c(Cl)nc(N)nc32)c1C (configuration not stated)
IC50 (MDA-MB-231): 0.76 µM
IC50 (MCF7 [1]): 0.98 µM

Source: ChEMBL document CHEMBL5154662, “Discovery of BP3 as an efficacious proteolysis targeting chimera (PROTAC) degrader of HSP90 for treating breast cancer” (Eur J Med Chem, 2022)
